The numbers were not newly measured in patent US20260083687A1, “COMPOUNDS FOR REDUCING LACTATION AND IMPROVING HEALTH” (AHV International B.V., priority 2022, published 2026), which cites them from elsewhere.

Molecules are shown by their SMILES.

One data set has as its system dairy cows. Conditions: single injection 5.6 mg at dry-off, cited from earlier work.
The subject of the next data set is goats. As to conditions: single injection 5.6 mg at dry-off; cited from earlier work.
A further data set relates to cows. As to conditions: cited from earlier work.

Regarding `C=CCN1C[C@H](C(=O)N(CCCN(C)C)C(=O)NCC)C[C@@H]2c3cccc4[nH]cc(c34)C[C@H]21` [cabergoline], the “duration of reduced prolactin after dry-off” value with dairy cows was “up to 8 days”. Moreover, the milk reduction in the data set with dairy cows (dairy cows) is given as 22%; in the data set on goats, 28%.

Turning to `CCCN1CC(NS(=O)(=O)N(CC)CC)CC2Cc3c(O)cccc3CC21` (stereo not drawn) [quinagolide], the “lower milk production compared with the placebo group” value in the data set on cows (1 mg daily i.m. during 9 weeks, early lactation, last 4 weeks of treatment) is listed as 5.3 kg/day. Also, the Milk production in the data set with cows (4 mg i.m. twice a day from 5 days before until 13 days after dry-off, placebo 25 kg/day) is given as 18 kg/day. Further, the “decreased milk production compared with the placebo group” value in the data set on cows (Ollier, Zhao and Lacasse (2014)) is 7 L.
